Reference: ChEMBL document CHEMBL4311997, “Discovery of a potent histone deacetylase (HDAC) 3/6 selective dual inhibitor” (Eur J Med Chem, 2019)
The source made the active and inactive calls. No cut-off for these calls is given here.

Columns and labels:
[1] = molecular target: Histone deacetylase 7 (Homo sapiens) (UniProt Q8WUI4); assay: Inhibition of human HDAC7 at 10 uM using Acetyl-Lys (trifluoroacetyl)-AMC) as substrate incubated for 2 hrs by fluorescence assay
[2] = molecular target: Histone-lysine N-methyltransferase, H3 lysine-79 specific (Homo sapiens) (UniProt Q8TEK3); assay: Inhibition of human DOT1L at 100 uM using oligo nucleosomes as substrate incubated for 1 hr in presence of [3H]-SAM by filter binding method relative to control
[3] = tested on: MDA-MB-231; assay: Induction of apoptosis in human MDA-MB-231 cells assessed as viable cells at 9 uM incubated for 48 hrs by Annexin V-FITC/PI staining by flow cytometric analysis (reference value: 77%); assay type: functional; settings: MDA-MB-231, 48 h, read-out: Activity
[4] = tested on: MDA-MB-231; assay: Induction of apoptosis in human MDA-MB-231 cells assessed as viable cells at 3 uM incubated for 48 hrs by Annexin V-FITC/PI staining by flow cytometric analysis (reference value: 77%); assay type: functional; settings: MDA-MB-231, 48 h, read-out: Activity
[5] = species: Homo sapiens; assay: Selectivity ratio of IC50 for human HDAC8 to IC50 for human HDAC6
[6] = species: Homo sapiens; assay: Inhibition of human EZH2 complex at 100 uM using core histone as substrate incubated for 1 hr in presence of [3H]-SAM by filter binding method relative to control
[7] = tested on: MDA-MB-231; assay: Induction of apoptosis in human MDA-MB-231 cells assessed as late apoptotic cells at 6 uM incubated for 48 hrs by Annexin V-FITC/PI staining by flow cytometric analysis (reference value: 3%); assay type: functional
[8] = molecular target: Histone-lysine N-methyltransferase EHMT2 (Homo sapiens, UniProt Q96KQ7); assay: Inhibition of human G9a using core histone H3 (1 to 21 residues) as substrate incubated for 1 hr in presence of [3H]-SAM by filter binding method
[9] = molecular target: Polyamine deacetylase HDAC10 (Homo sapiens, UniProt Q969S8); assay: Inhibition of human HDAC10 using Acetyl-Lys (trifluoroacetyl)-AMC) as substrate incubated for 2 hrs by fluorescence assay
[10] = Half life in male rat liver microsomes at 3 uM preincubated for 5 mins followed by NADPH addition and measured up to 45 mins by LC-MS/MS analysis; assay type: ADME, Microsome
[11] = Intrinsic clearance in male rat liver microsomes at 3 uM preincubated for 5 mins followed by NADPH addition and measured up to 45 mins by LC-MS/MS analysis; assay type: ADME, Microsome; settings: read-out: CLH
[12] = Therapeutic Index, ratio of EC50 for mouse TAMH cells to EC50 for human MDA-MB-231 cells; assay type: toxicity; settings: TAMH cells versus MDA-MB-231 cells, read-out: Ratio EC50
[13] = tested on: NCI-H929; assay: Antiproliferative activity against human NCI-H929 cells incubated for 48 hrs by CellTiter-Glo luminescent cell viability assay; assay type: functional, cell-based; settings: NCI-H929, 48 h
[14] = tested on: MDA-MB-231; assay: Induction of apoptosis in human MDA-MB-231 cells assessed as necrotic cells at 9 uM incubated for 48 hrs by Annexin V-FITC/PI staining by flow cytometric analysis (reference value: 15%); assay type: functional
[15] = molecular target: T1, Protein deacetylase HDAC6 (Homo sapiens, UniProt Q9UBN7); assay: Inhibition of human HDAC6 using Arg-His-Lys-Lys (Ac) as substrate incubated for 2 hrs by fluorescence assay
T1 sequence (Q9UBN7 whole entry): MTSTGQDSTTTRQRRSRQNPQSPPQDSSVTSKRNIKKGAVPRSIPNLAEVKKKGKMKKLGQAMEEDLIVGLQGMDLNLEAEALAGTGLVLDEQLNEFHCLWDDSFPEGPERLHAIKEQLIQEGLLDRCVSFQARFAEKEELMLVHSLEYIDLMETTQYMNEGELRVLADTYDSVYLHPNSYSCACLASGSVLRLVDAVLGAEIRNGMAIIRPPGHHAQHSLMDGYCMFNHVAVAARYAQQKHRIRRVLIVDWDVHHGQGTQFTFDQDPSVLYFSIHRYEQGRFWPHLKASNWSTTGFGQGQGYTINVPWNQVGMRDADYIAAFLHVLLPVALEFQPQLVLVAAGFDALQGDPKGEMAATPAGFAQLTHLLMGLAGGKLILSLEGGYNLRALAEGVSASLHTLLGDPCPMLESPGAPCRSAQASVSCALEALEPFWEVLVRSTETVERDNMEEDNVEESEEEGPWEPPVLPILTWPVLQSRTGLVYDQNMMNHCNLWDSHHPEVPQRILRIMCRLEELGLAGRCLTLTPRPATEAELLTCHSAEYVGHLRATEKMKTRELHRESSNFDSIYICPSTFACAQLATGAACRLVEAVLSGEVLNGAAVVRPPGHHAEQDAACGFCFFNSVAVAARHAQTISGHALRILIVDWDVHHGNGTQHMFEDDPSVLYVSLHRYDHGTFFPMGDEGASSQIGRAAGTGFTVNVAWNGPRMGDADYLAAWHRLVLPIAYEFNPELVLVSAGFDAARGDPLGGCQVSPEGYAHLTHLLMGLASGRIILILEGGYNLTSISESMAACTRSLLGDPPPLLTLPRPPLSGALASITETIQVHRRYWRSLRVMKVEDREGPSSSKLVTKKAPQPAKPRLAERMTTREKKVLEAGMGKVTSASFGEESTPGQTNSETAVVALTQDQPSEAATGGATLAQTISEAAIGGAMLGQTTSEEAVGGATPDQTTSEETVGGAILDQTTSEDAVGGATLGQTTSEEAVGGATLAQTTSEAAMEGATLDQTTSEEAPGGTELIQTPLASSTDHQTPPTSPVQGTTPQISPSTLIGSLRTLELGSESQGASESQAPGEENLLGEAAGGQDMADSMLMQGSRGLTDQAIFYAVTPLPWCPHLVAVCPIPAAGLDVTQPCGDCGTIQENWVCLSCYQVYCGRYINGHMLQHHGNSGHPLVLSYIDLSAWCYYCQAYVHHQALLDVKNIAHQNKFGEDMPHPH

[16] = tested on: Plasmodium falciparum; assay: microbe, parasite or virus in culture; assay type: functional, organism-based; settings: 3D7, 48 h
Description: Antimalarial activity against ring stage Plasmodium falciparum 3D7 incubated for 48 hrs by Hoechst 33342 staining based fluorescence based assay

[17] = molecular target: Histone deacetylase 1/2/3 (Homo sapiens, UniProt Q13547+O15379+Q92769); assay: Inhibition of HDAC1/2/3 in human KMS-12-BM cells assessed as increase in Ac-H3 level incubated for 24 hrs by Western blot analysis; assay type: cell-based
[18] = tested on: MDA-MB-231; assay: Antiproliferative activity against human MDA-MB-231 cells incubated for 72 hrs by MTT assay; assay type: functional, cell-based; settings: MDA-MB-231, 72 h
[19] = molecular target: Histone deacetylase 4 (Homo sapiens) (UniProt P56524); assay: Inhibition of human HDAC4 at 10 uM using Acetyl-Lys (trifluoroacetyl)-AMC) as substrate incubated for 2 hrs by fluorescence assay relative to control
[20] = molecular target: DNA (cytosine-5)-methyltransferase 1 (Homo sapiens, UniProt P26358); assay: Inhibition of human DNMT1 using Poly(dI-dC) as substrate incubated for 1 hr in presence of [3H]-SAM by filter binding method
[21] = Cytotoxicity against human AC10 cells incubated for 24 hrs by CellTiter-Glo Cell Viability Assay; assay type: cell-based; settings: AC10, 24 h

Histone deacetylase 7 (Homo sapiens), sequence (Q8WUI4 whole entry): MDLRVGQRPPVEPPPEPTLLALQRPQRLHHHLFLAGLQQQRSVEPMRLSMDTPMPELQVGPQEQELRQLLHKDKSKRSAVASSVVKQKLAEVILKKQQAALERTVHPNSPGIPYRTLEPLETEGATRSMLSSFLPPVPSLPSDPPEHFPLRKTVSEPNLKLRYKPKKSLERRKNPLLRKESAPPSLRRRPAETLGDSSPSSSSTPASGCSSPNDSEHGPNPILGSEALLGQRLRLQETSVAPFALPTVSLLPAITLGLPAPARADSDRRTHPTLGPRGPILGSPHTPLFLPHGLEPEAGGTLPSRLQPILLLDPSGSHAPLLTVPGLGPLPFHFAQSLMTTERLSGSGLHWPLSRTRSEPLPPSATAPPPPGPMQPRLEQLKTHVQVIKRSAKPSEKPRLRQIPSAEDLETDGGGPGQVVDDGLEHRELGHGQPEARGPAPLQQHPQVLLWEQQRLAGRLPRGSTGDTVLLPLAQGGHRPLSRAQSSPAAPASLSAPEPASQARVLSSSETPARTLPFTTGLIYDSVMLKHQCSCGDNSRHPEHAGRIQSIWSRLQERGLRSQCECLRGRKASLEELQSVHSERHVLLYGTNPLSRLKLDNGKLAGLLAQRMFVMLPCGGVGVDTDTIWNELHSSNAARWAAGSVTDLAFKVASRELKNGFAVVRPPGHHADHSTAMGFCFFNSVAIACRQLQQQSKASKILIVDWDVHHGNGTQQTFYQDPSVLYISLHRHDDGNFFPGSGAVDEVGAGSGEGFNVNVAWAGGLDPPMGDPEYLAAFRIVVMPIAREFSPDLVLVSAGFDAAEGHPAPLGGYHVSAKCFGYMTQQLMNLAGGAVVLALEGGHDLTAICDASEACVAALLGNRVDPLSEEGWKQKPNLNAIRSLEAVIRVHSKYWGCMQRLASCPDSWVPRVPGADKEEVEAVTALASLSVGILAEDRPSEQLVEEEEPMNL
DNA (cytosine-5)-methyltransferase 1, sequence (P26358 whole entry): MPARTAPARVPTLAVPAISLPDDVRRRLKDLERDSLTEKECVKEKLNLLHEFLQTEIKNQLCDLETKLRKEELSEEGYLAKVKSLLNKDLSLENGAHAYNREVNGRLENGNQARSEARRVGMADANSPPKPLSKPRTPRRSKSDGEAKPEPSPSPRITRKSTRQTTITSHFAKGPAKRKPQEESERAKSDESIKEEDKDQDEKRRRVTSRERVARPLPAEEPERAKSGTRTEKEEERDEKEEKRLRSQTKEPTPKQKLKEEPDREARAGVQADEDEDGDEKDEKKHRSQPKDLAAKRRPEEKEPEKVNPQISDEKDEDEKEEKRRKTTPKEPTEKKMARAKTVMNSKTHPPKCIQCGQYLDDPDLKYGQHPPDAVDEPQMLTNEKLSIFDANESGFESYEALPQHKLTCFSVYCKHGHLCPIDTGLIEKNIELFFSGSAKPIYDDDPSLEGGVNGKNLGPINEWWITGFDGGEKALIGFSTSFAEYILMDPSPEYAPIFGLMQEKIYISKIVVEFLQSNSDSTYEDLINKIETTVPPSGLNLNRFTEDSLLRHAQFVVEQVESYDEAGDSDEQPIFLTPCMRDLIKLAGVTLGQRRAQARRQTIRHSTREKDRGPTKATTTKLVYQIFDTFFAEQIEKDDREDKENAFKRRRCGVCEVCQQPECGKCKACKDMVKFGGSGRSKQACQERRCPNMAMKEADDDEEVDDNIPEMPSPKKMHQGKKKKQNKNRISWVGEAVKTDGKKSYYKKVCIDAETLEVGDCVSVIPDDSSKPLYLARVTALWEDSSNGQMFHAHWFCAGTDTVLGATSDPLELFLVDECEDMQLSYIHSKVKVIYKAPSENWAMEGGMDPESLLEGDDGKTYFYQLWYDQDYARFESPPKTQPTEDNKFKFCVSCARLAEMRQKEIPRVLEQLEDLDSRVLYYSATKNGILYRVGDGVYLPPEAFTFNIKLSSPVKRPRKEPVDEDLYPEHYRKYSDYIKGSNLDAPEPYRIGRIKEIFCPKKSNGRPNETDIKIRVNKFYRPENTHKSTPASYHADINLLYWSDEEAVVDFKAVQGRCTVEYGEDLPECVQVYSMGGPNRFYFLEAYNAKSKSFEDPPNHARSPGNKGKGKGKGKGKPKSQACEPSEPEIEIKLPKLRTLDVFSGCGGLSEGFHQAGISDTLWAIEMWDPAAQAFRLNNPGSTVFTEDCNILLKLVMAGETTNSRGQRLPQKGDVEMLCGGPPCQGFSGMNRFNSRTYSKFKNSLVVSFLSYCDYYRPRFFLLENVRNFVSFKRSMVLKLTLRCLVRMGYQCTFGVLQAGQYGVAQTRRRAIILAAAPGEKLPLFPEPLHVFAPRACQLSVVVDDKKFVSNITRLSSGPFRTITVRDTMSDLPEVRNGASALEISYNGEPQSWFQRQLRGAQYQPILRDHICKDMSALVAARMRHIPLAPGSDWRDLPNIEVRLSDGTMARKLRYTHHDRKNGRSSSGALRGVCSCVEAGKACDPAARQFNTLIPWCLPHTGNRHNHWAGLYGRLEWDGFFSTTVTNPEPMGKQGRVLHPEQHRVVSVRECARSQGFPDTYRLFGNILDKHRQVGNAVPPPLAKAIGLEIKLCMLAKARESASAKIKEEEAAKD
Histone-lysine N-methyltransferase, H3 lysine-79 specific (Homo sapiens), sequence (Q8TEK3 whole entry, looked up): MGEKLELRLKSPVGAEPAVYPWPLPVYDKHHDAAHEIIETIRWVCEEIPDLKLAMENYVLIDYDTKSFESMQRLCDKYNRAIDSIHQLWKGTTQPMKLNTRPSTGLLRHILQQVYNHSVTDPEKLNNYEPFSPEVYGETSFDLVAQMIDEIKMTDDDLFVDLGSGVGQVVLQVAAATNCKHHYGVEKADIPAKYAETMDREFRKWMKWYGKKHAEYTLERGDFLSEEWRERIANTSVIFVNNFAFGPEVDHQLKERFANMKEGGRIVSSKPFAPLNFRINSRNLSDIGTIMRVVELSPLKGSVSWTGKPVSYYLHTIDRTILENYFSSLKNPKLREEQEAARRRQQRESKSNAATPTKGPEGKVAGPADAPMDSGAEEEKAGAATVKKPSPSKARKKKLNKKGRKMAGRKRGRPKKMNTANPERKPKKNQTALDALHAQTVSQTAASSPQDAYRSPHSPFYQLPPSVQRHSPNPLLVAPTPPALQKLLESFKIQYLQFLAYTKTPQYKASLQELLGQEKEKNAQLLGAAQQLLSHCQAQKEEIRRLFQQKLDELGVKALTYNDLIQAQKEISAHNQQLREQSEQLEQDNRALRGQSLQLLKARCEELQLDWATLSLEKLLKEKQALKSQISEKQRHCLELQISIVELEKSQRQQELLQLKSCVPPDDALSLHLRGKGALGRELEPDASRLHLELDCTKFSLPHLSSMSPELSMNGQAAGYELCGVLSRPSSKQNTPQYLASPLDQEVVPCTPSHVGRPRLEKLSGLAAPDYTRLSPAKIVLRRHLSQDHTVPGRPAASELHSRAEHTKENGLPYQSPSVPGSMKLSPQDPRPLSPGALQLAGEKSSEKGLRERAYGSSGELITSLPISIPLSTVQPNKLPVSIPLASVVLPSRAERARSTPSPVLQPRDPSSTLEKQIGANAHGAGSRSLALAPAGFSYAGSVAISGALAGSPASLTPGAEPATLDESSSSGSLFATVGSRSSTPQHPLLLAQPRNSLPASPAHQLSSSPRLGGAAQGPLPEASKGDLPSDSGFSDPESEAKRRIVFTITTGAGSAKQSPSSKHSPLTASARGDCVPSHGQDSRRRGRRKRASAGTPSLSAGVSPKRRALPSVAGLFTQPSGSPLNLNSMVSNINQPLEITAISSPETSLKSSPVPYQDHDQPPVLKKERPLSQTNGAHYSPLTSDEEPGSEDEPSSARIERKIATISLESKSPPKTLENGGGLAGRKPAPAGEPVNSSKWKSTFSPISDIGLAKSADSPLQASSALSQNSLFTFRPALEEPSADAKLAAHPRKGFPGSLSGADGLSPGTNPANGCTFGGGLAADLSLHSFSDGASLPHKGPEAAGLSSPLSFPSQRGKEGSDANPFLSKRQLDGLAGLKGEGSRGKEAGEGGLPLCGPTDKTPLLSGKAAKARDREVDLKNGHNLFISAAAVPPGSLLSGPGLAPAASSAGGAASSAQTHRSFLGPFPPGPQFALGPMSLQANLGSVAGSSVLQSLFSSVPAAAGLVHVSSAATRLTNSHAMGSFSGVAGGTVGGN
Polyamine deacetylase HDAC10, sequence (Q969S8 whole entry): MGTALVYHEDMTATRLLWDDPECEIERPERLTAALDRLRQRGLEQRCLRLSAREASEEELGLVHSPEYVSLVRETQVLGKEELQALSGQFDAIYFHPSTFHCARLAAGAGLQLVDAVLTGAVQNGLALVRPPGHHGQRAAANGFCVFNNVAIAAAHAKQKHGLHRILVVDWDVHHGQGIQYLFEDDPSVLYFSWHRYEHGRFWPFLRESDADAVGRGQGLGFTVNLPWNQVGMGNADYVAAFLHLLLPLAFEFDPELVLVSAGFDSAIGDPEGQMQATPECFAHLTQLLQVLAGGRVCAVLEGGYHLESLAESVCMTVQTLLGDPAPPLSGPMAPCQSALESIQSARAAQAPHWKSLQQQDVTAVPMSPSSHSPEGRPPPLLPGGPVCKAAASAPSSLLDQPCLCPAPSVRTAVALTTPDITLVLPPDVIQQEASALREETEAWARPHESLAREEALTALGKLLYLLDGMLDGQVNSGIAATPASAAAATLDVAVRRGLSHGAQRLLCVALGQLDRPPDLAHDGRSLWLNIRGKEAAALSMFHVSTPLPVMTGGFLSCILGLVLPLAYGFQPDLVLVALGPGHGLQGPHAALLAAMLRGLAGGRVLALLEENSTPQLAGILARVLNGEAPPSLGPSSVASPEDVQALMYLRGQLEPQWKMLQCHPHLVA

inhibition [1]: inactive
inhibition [2]: 16%
Ratio IC50 [5]: 485
inhibition [6]: 27%
EC50 [8]: 142 µM
IC50 [9]: 2.69 µM
half-life at 3 µM [10]: 2.38 h
microsomal CLint at 3 µM [11]: 16.3 µL/min/mg
EC50 [13]: 4.6 µM
IC50 [15]: 0.00257 µM
IC50 [16]: 0.145 µM
EC50 [17]: 7.5 µM
inhibition [17]: Dose-dependent effect
EC50 [18]: 6.3 µM
inhibition [19]: 20%
IC50 [20]: 14 µM
Compound: COc1ccc(CN2CCC(Nc3nc(Nc4ccc(NC(=O)CCCCCCC(=O)NO)cc4)nc4cc(OC)c(OC)cc34)CC2)cc1
viability at 9 µM [3]: 57%
viability at 3 µM [4]: 48%
Activity [7]: 15%
selectivity ratio [12]: 5
Activity [14]: 8%
EC50 [21]: 94 µM
